Results published in the supplement of paper PMC11451515.

System: SEM cells
Assay: cell viability relative to DMSO control; higher = less cytotoxic
Conditions: 48 h
Method in brief: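 NOMO1 or SEM cells were plated at 500 cells/well and P12-Ichikawa cells at 1000 cells/well in 1536-well plates (5 μl), after each leukemia line had been adapted for at least four passages in each medium. Pin dosing delivered library compounds in DMSO at 11 threefold concentrations, 47 μM to 0.79 nM. CellTiter-Glo One luminescence was read after 48 h at 37°C. Viability is reported as a per-plate percentage of DMSO wells, with cell-free wells as background.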

[1] = HPLM + 10% dialyzed FBS, 0.000781 µM
[2] = HPLM + 10% dialyzed FBS, 0.00234 µM
[3] = HPLM + 10% dialyzed FBS, 0.00702 µM
[4] = HPLM + 10% dialyzed FBS, 0.0211 µM
[5] = HPLM + 10% dialyzed FBS, 0.0632 µM
[6] = HPLM + 10% dialyzed FBS, 0.19 µM
[7] = HPLM + 10% dialyzed FBS, 0.569 µM
[8] = HPLM + 10% dialyzed FBS, 1.71 µM
[9] = HPLM + 10% dialyzed FBS, 5.12 µM
[10] = HPLM + 10% dialyzed FBS, 15.4 µM
[11] = HPLM + 10% dialyzed FBS, 46.1 µM
[12] = RPMI 5 mM glucose + 10% FBS, 0.000781 µM
[13] = RPMI 5 mM glucose + 10% FBS, 0.00234 µM
[14] = RPMI 5 mM glucose + 10% FBS, 0.00702 µM
[15] = RPMI 5 mM glucose + 10% FBS, 0.0211 µM
[16] = RPMI 5 mM glucose + 10% FBS, 0.0632 µM
[17] = RPMI 5 mM glucose + 10% FBS, 0.19 µM
[18] = RPMI 5 mM glucose + 10% FBS, 0.569 µM
[19] = RPMI 5 mM glucose + 10% FBS, 1.71 µM
[20] = RPMI 5 mM glucose + 10% FBS, 5.12 µM
[21] = RPMI 5 mM glucose + 10% FBS, 15.4 µM
[22] = RPMI 5 mM glucose + 10% FBS, 46.1 µM
[23] = RPMI 5 mM glucose + 10% dialyzed FBS, 0.000781 µM
[24] = RPMI 5 mM glucose + 10% dialyzed FBS, 0.00234 µM
[25] = RPMI 5 mM glucose + 10% dialyzed FBS, 0.00702 µM
[26] = RPMI 5 mM glucose + 10% dialyzed FBS, 0.0211 µM
[27] = RPMI 5 mM glucose + 10% dialyzed FBS, 0.0632 µM
[28] = RPMI 5 mM glucose + 10% dialyzed FBS, 0.19 µM
[29] = RPMI 5 mM glucose + 10% dialyzed FBS, 0.569 µM
[30] = RPMI 5 mM glucose + 10% dialyzed FBS, 1.71 µM
[31] = RPMI 5 mM glucose + 10% dialyzed FBS, 5.12 µM
[32] = RPMI 5 mM glucose + 10% dialyzed FBS, 15.4 µM
[33] = RPMI 5 mM glucose + 10% dialyzed FBS, 46.1 µM

Compound	cell viability [1] [%]	cell viability [2] [%]	cell viability [3] [%]	cell viability [4] [%]	cell viability [5] [%]	cell viability [6] [%]	cell viability [7] [%]	cell viability [8] [%]	cell viability [9] [%]	cell viability [10] [%]	cell viability [11] [%]	cell viability [12] [%]	cell viability [13] [%]	cell viability [14] [%]	cell viability [15] [%]	cell viability [16] [%]	cell viability [17] [%]	cell viability [18] [%]	cell viability [19] [%]	cell viability [20] [%]	cell viability [21] [%]	cell viability [22] [%]	cell viability [23] [%]	cell viability [24] [%]	cell viability [25] [%]	cell viability [26] [%]	cell viability [27] [%]	cell viability [28] [%]	cell viability [29] [%]	cell viability [30] [%]	cell viability [31] [%]	cell viability [32] [%]	cell viability [33] [%]
NC(=O)Cc1cccc(C(=O)c2ccccc2)c1N	73	99.4	96.9	39.7	113	115	109	99.6	96	101	104	95.7	38.4	90.7	33.4	101	95.2	95	107	95.5	88.8	85.1	44.3	78.3	101	43.1	97.4	107	103	112	95.4	105	85.2
c1cc(N[C@@H]2CCNC2)nc(-c2cnc3ccc(-c4cn[nH]c4)cn23)c1	105	109	136	134	106	98.6	81.5	78.8	74	76.5	67.2	–	–	–	–	–	–	–	–	–	–	–	–	–	–	–	–	–	–	–	–	–	–
O=C(N[C@H]1CN2CCC1CC2)c1ccc(Cl)cc1	89.3	96.5	95.5	99.8	98.7	87.4	96.3	105	102	98.5	84.4	84	92.2	99.5	87.8	96.1	95.9	101	99.5	93.3	88.6	60.2	93.2	98.9	94.8	94.3	104	116	96.1	93.2	94.1	107	76.1
O=C(/C=C/c1cccnc1)NCCCCC1CCN(C(=O)c2ccccc2)CC1	76.5	86.3	22.7	9.57	7.6	6.37	6.62	6.08	6.74	6.78	5.79	103	65.1	14.8	7.35	21.9	5.86	6.67	6.71	5.95	5.65	3.92	105	32	13.8	7.49	7.08	6.77	6.47	6.21	6.4	7.09	4.78
O=C1C(CCC(O)c2ccc(F)cc2)C(c2ccc(O)cc2)N1c1ccc(F)cc1 (stereo unspecified)	107	97.3	110	112	103	109	108	101	113	102	104	81.4	98.2	96	111	92.9	100	101	97.1	114	98.8	101	106	113	121	121	128	113	115	121	113	108	108
NC(=O)c1c(OCc2c(F)cc(Br)cc2F)nsc1NC(=O)NCCCCN1CCCC1	116	122	111	106	108	131	118	111	84.4	39.2	35.9	91.6	100	78.7	83.2	90.5	110	109	103	75.4	22.4	27.9	97	130	97.6	116	97	129	123	114	107	37.1	63.7
CC(C)(OCc1nn(Cc2ccccc2)c2ccccc12)C(=O)O	100	101	95.4	103	116	97.4	108	100	97.5	109	92.6	99.4	95.2	116	101	109	93.9	94	112	109	96	96.5	94.7	103	107	104	97.1	102	115	100	104	103	96.4
COc1ccccc1OCC(O)CN1CCN(CC(=O)Nc2c(C)cccc2C)CC1 (stereo unspecified)	81.9	101	98	121	126	123	111	118	136	130	136	104	135	122	128	134	148	123	142	134	129	131	115	128	114	136	125	135	137	121	132	130	126
CCCCc1ccc(N[S+](=O)([O-])c2ccc(C)c(C(=O)N3CCN(c4cccc(C)c4C)CC3)c2)cc1	–	–	–	–	–	–	–	–	–	–	–	120	124	138	17.1	129	118	137	126	119	106	98.2	117	96.2	127	21.2	118	118	106	117	107	117	84.9
Cc1nc(C(=O)NCC(=O)O)c(O)c2ccc(Oc3ccccc3)cc12	109	109	115	112	116	108	99.5	115	92.8	102	112	101	108	112	115	103	99.4	95.7	94.8	104	108	99.2	113	112	123	116	119	112	113	113	103	115	122
CC(C)C[C@@H](C(=O)N[C@H](C(=O)OC1CCCC1)c1ccccc1)[C@H](O)C(=O)NO	125	119	123	136	120	122	117	89.2	105	104	38	–	–	–	–	–	–	–	–	–	–	–	113	113	111	114	102	106	101	72.8	83.4	65.9	23.2
CO[C@H]1C[C@H]2OC[C@@]2(OC(C)=O)[C@H]3[C@H](OC(=O)C4=CC=CC=C4)[C@]5(O)C[C@H](OC(=O)[C@H](O)[C@@H](NC(=O)OC(C)(C)C)C6=CC=CC=C6)/C(=C(/[C@@H](OC)C(=O)[C@]13C)C5(C)C)C	61.3	70.2	80.6	15.4	16.5	17.7	16	15	18.1	13.6	15.8	89.4	96.1	11.1	9.9	12.3	14	11.2	15.1	12.7	13.2	13.4	64	61.2	80.6	11.2	13.9	13.5	14.1	13.7	13.2	11.6	11.8
O=C(O)CCc1ccc(NCc2cccc(Oc3ccccc3)c2)cc1	62.4	93.7	114	103	112	108	98.7	122	121	109	123	74.2	106	108	90.6	124	105	99.3	118	110	120	95.2	71.6	106	126	116	109	112	121	115	127	131	128
Cc1ccc(C)c(OCCCC(C)(C)C(=O)O)c1	83.8	81.2	99.6	85.3	97.3	94.9	92.5	92.7	92.6	98.5	96.8	97.1	87.2	87.9	97.9	94.8	103	88.7	93.9	103	103	92.1	91	104	93.1	90.7	104	91.9	102	87.1	99.5	108	95.5
CON(C)C(=O)N1\N=C(/S[C@]1(CCCN)C2=CC=CC=C2)C3=CC(=CC=C3F)F	23.7	22.9	24.5	28.8	26.4	27.4	30.7	27	29.9	31.7	24.8	20.8	20.4	20.1	22.6	22.8	21.5	25.6	18.8	21.3	20.4	23.8	21.2	21.1	19.9	21	21.3	23.2	23.2	24.6	23.9	20.6	21.6
